According to ChEMBL document CHEMBL2429847, “Inhibitors of PI3Kβ as Potential Treatment for Cancer” (ACS Med Chem Lett, 2013):

Experiments:
MDA-MB-468 = assay: Antiproliferative activity against PTEN-deficient human MDA-MB-468 cells after 6 days by Alamar blue assay; format: functional, cell-based; settings: MDA-MB-468, 144 h
[1] = molecular target: Phosphatidylinositol 4,5-bisphosphate 3-kinase catalytic subunit beta isoform (Homo sapiens, UniProt P42338); assay: Inhibition of PI3Kbeta-mediated AKT phosphorylation at Ser473 in PTEN-deficient human MDA-MB-468 cells after 30 mins; format: cell-based
Phosphatidylinositol 4,5-bisphosphate 3-kinase catalytic subunit beta isoform, sequence (P42338 whole entry, canonical isoform): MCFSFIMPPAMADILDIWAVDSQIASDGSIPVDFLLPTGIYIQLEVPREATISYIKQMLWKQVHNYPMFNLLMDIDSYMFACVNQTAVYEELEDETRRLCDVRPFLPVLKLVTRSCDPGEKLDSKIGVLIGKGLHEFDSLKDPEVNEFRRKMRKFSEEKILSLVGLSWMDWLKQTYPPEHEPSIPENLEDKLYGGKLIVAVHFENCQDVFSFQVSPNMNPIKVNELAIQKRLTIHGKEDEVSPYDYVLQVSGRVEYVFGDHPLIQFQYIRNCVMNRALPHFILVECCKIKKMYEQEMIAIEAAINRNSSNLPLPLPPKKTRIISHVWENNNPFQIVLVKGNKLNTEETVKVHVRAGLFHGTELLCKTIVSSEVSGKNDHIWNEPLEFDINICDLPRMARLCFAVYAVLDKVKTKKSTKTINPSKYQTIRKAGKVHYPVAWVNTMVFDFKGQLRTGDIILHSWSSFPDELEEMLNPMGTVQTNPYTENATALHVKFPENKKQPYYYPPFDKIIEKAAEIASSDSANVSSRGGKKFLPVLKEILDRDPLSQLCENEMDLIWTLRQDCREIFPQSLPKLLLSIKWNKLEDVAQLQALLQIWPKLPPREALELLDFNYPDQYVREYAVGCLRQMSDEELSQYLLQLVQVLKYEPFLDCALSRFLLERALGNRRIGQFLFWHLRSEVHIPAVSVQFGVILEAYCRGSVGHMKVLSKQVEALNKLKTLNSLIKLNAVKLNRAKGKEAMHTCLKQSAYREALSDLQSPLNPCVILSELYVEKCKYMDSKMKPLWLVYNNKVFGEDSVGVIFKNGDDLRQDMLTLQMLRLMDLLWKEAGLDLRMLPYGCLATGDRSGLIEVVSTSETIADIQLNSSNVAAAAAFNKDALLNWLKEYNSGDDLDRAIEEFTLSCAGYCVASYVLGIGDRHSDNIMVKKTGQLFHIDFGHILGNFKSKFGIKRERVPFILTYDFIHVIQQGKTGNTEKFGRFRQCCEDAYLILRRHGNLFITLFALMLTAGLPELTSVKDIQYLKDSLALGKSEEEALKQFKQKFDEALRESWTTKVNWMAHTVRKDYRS

EC50 (MDA-MB-468) | IC50 [1] | Compound
18.1 nM | 15.9 nM | Cc1c(Cl)cccc1Cn1c(C)nc2c(C(=O)O)cc(N3CCOCC3)nc21
153 nM | 41.4 nM | Cc1nc2c(C(=O)O)cc(N3CCOCC3)nc2n1Cc1cccc(Cl)c1Cl
41 nM | 436 nM | Cc1c(Cn2c(C)nc3c(C(=O)O)cc(N4CCOCC4)nc32)cccc1C(F)(F)F
